Measurements reported in US20240373877A1, “ANIMAL FOOD PRODUCT AND METHOD AND APPARATUS THEREFOR” (priority 2023, published 2024).

Assays:
[1] = Beef cattle feed trial (weight gain, feed efficiency, BUN); type: in vivo, Weanling Angus-X steers
bovine rumen microbes = assay: Rumen microbial methane production in bovine rumen incubations; type: cell-based; settings: Yeast 2%, Monensin 10 μM
Protocol: THYM was also found to have a very pronounced inhibition of methane production by rumen microbes.
Bovine rumen microbes were incubated anaerobically for 24 hours at 39° C. with a silage: corn substrate. Bar A indicates basal control incubation, and bars B-G indicate additions. […] Monensin (Rumensin) was used as a positive inhibitory control. The hop acid content of the THYM samples in incubation bars E & F was 100 and 60 μg/ml for alpha and beta acids respectively, similar to the concentrations of alpha and beta acids, 100 μg/ml, added in bars B and C.

Compound: CC[C@@]1([C@@H]2O[C@@H]([C@H]3O[C@@](O)(CO)[C@H](C)C[C@@H]3C)C[C@@H]2C)CC[C@H]([C@]2(C)CC[C@]3(C[C@H](O)[C@@H](C)[C@@H]([C@@H](C)[C@@H](OC)[C@H](C)C(=O)O)O3)O2)O1 [Monensin, monensin]
- Average Daily Gain ([1]; 9 weeks, monensin 200 mg/animal or 1% THYM in rations): 1.65 kg/day
- Gain to Feed Ratio ([1]; 9 weeks, monensin 200 mg/animal or 1% THYM in rations, M & T vs C p = 0.07): 0.38 kg/kg
- blood urea nitrogen (BUN) level ([1]; feed trial, FIG. 6): significantly lower
- inhibition at 10 µM (bovine rumen microbes; THYM 0.4% (of DM), vs paired control, p < 0.05): 68%
- Methane Production, Experiment AVG (bovine rumen microbes; THYM 0.4%, N = 3 or 4): 11152 ppm
